Measurements taken from ChEMBL document CHEMBL3507680, “University of Dundee, Gates Library screen for HepG2 cell viability”.

Assay: Human HepG2 cell viability assay in 384 well format
Type: toxicity, cell-based
Parameters: dose 125 nL, time 70.5 hour; cytotoxicity at 70.5 h: concentration not given beside the values
Details: HepG2 cells, read-out: Inhibition
In the case of `c1ccc(CN2CCC3(CC2)Nc2ccccc2CO3)cc1`, the cytotoxicity at 70.5 h is reported as -6.59%.
For `CC(C)Cc1nnc2sc(-c3cc(C(C)C)n[nH]3)nn12`, the cytotoxicity at 70.5 h was 12.3%.
For `CC(=O)Nc1sc2c(c1C(=O)O)CCc1ccccc1-2`, the cytotoxicity at 70.5 h was -11.4%.
With `O=C(Cc1ccc2c(c1)OCCCO2)Nc1nnn[nH]1` the cytotoxicity at 70.5 h was -6.98%.
In the case of `O=C(Cc1ccc2c(c1)OCC2)Nc1nc(C(F)(F)F)n[nH]1`, the cytotoxicity at 70.5 h is reported as 0.788%.
`O=c1ccc(-c2ccccc2F)nn1CN1CCCCCC1` gave a cytotoxicity at 70.5 h of -4.57%.
`Cc1ccccc1CSc1ncc(Br)c(C(=O)O)n1` gave a cytotoxicity at 70.5 h of -5.71%.
With `Cc1noc(-c2ccc(N3CCCC(C(=O)O)C3)nc2)n1` (centres undefined) the cytotoxicity at 70.5 h was -3.67%.
Compound `O=C(NCCCn1cccn1)C1(c2ccccc2)CCOCC1` has a cytotoxicity at 70.5 h of -10.8%.
With `Cc1ccc(C2(C(=O)NCCCn3cccn3)CCOCC2)cc1` the cytotoxicity at 70.5 h was 14.4%.
`O=C(O)c1cnc(N2CCC(O)CC2)nc1COc1ccc(F)cc1` gave a cytotoxicity at 70.5 h of -21.6%.
`O=C(O)c1cnc(N2CCC(O)CC2)nc1COc1cccc(F)c1` gave a cytotoxicity at 70.5 h of -12.9%.
For `COc1c(Br)c(C(=O)NC2CCCC2)nn1C`, the cytotoxicity at 70.5 h was -9.06%.
In the case of `COc1c(Br)c(C(=O)NC2CC2)nn1C`, the cytotoxicity at 70.5 h is reported as 0.124%.
With `Cn1ncc(C(=O)N2CCOCC2)c1Cl` the cytotoxicity at 70.5 h was -13.1%.
`CC1CCCCN1C(=O)COCc1nc(-c2ccncc2)no1` (centres undefined) gave a cytotoxicity at 70.5 h of 4.94%.
For `CN1CCN(C(=O)COCc2nc(-c3ccncc3)no2)CC1`, the cytotoxicity at 70.5 h was 17.1%.
`O=C(COCc1nc(-c2ccncc2)no1)N1CCCCC1` showed a cytotoxicity at 70.5 h of -6.97%.
For `CCn1nc(C)c2nnn(CC(=O)Nc3ccc(C)cc3)c(=O)c21`, the cytotoxicity at 70.5 h was -4.64%.
In the case of `CCn1nc(C)c2nnn(CC(=O)Nc3ccc(C)c(C)c3)c(=O)c21`, the cytotoxicity at 70.5 h is reported as -7.31%.
For `O=C(O)c1cnc(N2CCCC2)nc1COc1ccc(F)cc1`, the cytotoxicity at 70.5 h was -21.1%.
For `CCCNc1cc(C(=O)N2CCOCC2)nc(C)n1`, the cytotoxicity at 70.5 h was -4.28%.
In the case of `Cc1nc(C(=O)N2CCOCC2)cc(N2CCC(C(N)=O)CC2)n1`, the cytotoxicity at 70.5 h is reported as -0.347%.
For `COc1cccc(OCCc2nnc(NC(C)=O)s2)c1`, the cytotoxicity at 70.5 h was -6.24%.
`COCc1nc(N(C)C)ncc1C(=O)NC(C)c1ccccc1` (centres undefined) gave a cytotoxicity at 70.5 h of -5.51%.
Work on `CCc1c(O)nc2nc(N3CCOCC3)nn2c1C` yielded a cytotoxicity at 70.5 h of -11%.
Compound `CCc1c(O)nc2nc(N3CCCC3)nn2c1C` has a cytotoxicity at 70.5 h of -5.54%.
For `O=C(Nc1cc(-c2ccncc2)no1)C1CC1`, the cytotoxicity at 70.5 h was -10.1%.
For `O=C(Nc1cc(-c2ccncc2)no1)C1CCC1`, the cytotoxicity at 70.5 h was -10.3%.
For `COc1c(C(=O)NCc2cnn(C)c2C)nnn1Cc1ccccc1`, the cytotoxicity at 70.5 h was 23%.
With `COc1c(C(=O)NCc2cccnc2)nnn1Cc1ccccc1` the cytotoxicity at 70.5 h was -7.04%.
`Cc1cc(N2CCCN(c3ccnc(C)c3)CC2)ccn1` showed a cytotoxicity at 70.5 h of -7.78%.
In the case of `Cc1cccc(NC(=O)c2ccc(OCc3nnnn3C)cc2)n1`, the cytotoxicity at 70.5 h is reported as 14.4%.
Compound `COc1cc(-c2n[nH]c(CN)n2)cc(OC)c1OC` has a cytotoxicity at 70.5 h of 23.8%.
In the case of `Oc1ccccc1-c1n[nH]c(C2CCCO2)n1` (centres undefined), the cytotoxicity at 70.5 h is reported as 28.5%.
`COCCCNC(=O)c1cc(C(C)C)nc(N2CCCCCC2)n1` gave a cytotoxicity at 70.5 h of -8.22%.
Work on `COc1c(C(=O)NCc2cccnc2)nnn1Cc1ccc(C)cc1` yielded a cytotoxicity at 70.5 h of -15.1%.
`CC(=O)Nc1ncc(S(=O)(=O)Nc2ccc(F)cc2)s1` showed a cytotoxicity at 70.5 h of 30.4%.
Compound `CCn1c(Nc2ccccc2OC)nc2c(C)nn(C)c2c1=O` has a cytotoxicity at 70.5 h of 14%.
`COc1cc2cc(C(=O)O)n(C)c2cc1OC` showed a cytotoxicity at 70.5 h of -14.4%.
Compound `CCn1cc(CN(C)S(=O)(=O)c2ccc(NC(C)=O)cc2)cn1` has a cytotoxicity at 70.5 h of 26.5%.
With `CCN(CC)CCNC(=O)c1nn(CC)cc1Cl` the cytotoxicity at 70.5 h was 18.6%.
With `CCn1cc(N2Cc3nc(N4CCOCC4)ncc3C2=O)cn1` the cytotoxicity at 70.5 h was 2.67%.
Work on `CCn1cc(N2Cc3nc(N)ncc3C2=O)cn1` yielded a cytotoxicity at 70.5 h of 29.8%.
With `CCn1nc(C)c2nnn(CC(=O)Nc3c(C)cccc3C)c(=O)c21` the cytotoxicity at 70.5 h was 27.9%.
With `CSCc1cccc(S(=O)(=O)N2CCC(C)CC2)c1` the cytotoxicity at 70.5 h was 8.82%.
In the case of `Cc1nn(C)c2c(NCCCn3cccn3)ncnc12`, the cytotoxicity at 70.5 h is reported as -6.36%.
In the case of `CCOc1c(CNCCCn2ccnc2)cc(Cl)cc1OC`, the cytotoxicity at 70.5 h is reported as -5.3%.
Compound `CCOc1ccc(CNCCCn2ccnc2)cc1Cl` has a cytotoxicity at 70.5 h of 0.65%.
